The nature of the data set: Thermal decomposition on heating under nitrogen atmosphere. The data set is classed as physicochemical. The following applies: heating rate of 20K/min under nitrogen atmosphere. On the procedure:
The crystalline form III decomposes above 270° C., when heated with a heating rate of 20K/min under nitrogen atmosphere.
The crystalline form IV decomposes at about 270° C. when heated at 20K/min under nitrogen atmosphere.

Take `CO[C@@H]1[C@H](N(C)C(=O)c2ccccc2)C[C@H]2O[C@]1(C)n1c3ccccc3c3c4c(c5c6ccccc6n2c5c31)C(=O)NC4` [crystalline form III, N-[(9S,10R,11R,13R)-2,3,10,11,12,13-hexahydro-10-methoxy-9-methyl-1-oxo-9,13-epoxy-1H,9H-diindolo[1,2,3-gh:3′,2′,1′-lm]pyrrolo[3,4-j][1,7]benzodiazonin-11-yl]-N-methylbenzamide]: the decomposition temperature result was “above 270 °C”.

On to `CO[C@@H]1[C@H](N(C)C(=O)c2ccccc2)C[C@H]2O[C@]1(C)n1c3ccccc3c3c4c(c5c6ccccc6n2c5c31)C(=O)NC4` [crystalline form IV, N-[(9S,10R,11R,13R)-2,3,10,11,12,13-hexahydro-10-methoxy-9-methyl-1-oxo-9,13-epoxy-1H,9H-diindolo[1,2,3-gh:3′,2′,1′-lm]pyrrolo[3,4-j][1,7]benzodiazonin-11-yl]-N-methylbenzamide], for which the decomposition temperature result was “about 270 °C”.

The record behind these values is patent publication US9150589B2, “Polymorphous forms III and IV of N-benzoyl—staurosporine” (NOVARTIS AG, priority 2009, dated 2015).
